Experimental data reported in publication PMC3387161, “Small Molecules Targeted to a Non-Catalytic “RVxF” Binding Site of Protein Phosphatase-1 Inhibit HIV-1” (PLoS ONE, 2012).
“And” between values parts separate entries of the source, which are not always exact repeats. Equal values may be shown once. Square brackets hold non-standard residues; d marks the D form. Ends that are not written are not given here. pS = N[C@@H](COP(=O)(O)O)C(=O)O

Tests used:
[1] = system: HIV-1 transcription in CEM-GFP cells; experiment: cells; format: cell-based; details: for IC50: Human immunodeficiency virus 1, CEM-GFP, 24 h, read-out: Inhibition of HIV-1 Transcription in CEM-GFP cells (IC50, μM)
[2] = system: CEM cells; experiment: Toxicity by propidium iodide fluorescence in CEM-GFP cells; format: cell-based; details: Homo sapiens, CCRF-CEM, 3 µM to 45 µM, 24 h
[3] = target: T1, recombinant PP1α (Oryctolagus cuniculus, UniProt P62139); experiment: Malachite green dephosphorylation of RVxF-containing hybrid pRb peptides by PP1α; format: biochemical; details: peptide as substrate, no compound added
T1 construct: purchased New England Biolabs, Ipswich, MA
T1 sequence (P62139 whole entry): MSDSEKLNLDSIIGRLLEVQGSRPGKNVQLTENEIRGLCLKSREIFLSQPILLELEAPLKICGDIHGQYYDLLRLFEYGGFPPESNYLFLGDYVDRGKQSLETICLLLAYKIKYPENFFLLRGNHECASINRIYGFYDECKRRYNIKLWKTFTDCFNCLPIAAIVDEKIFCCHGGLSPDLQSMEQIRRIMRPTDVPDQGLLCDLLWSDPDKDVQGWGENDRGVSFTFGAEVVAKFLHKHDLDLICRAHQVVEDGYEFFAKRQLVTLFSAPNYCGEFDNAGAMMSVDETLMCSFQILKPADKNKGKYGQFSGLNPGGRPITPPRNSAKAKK
From the text: Here, we analyzed the effect of 1H4 on the binding of the Tat RVxF sequence to PP1 using hybrid PP1 substrates containing a substrate phosphopeptide linked to RVxF-containing sequences derived from Tat or NIPP1. As the substrate phosphopeptide, we used a retinoblastoma protein-derived HIPR(pS)[…] peptide (pRb) that is efficiently dephosphorylated by PP1 but not by the enzymatically-related PP2A [13]. The pRb peptide was linked to an extended RVxF-containing sequence derived from Tat ([…]) (pRb-Tat peptide) or the central domain of NIPP1 ([…]). To visualize the interaction between pRb-Tat and PP1 we built a computational model of the pRb-Tat peptide with PP1 complex (described in Materials and Methods). Based on this model, the pRb-Tat peptide is able to bind to the RVxF- accommodating groove of PP1 and, at the same time, to reach the active site of PP1 without any tension (Fig. 5A, green spheres; Fig. 5B, gray sticks). The pRb-Tat peptide was efficiently dephosphorylated by PP1 in vitro (Fig. 5C, V0 = 0.31 µM·min^-1). […] Addition of 1H4 at 3-fold molar excess (480 µM) over pRb-Tat (160 µM) inhibited pRb-Tat dephosphorylation and reduced the rate of dephosphorylation (Fig. 5C, V0 = 0.19 µM·min^−1) to the rate of pRb-Tat QACA dephosphorylation (Fig. 5C, V0 = 0.17 µM⋅min^−1). […] To further investigate the effect of 1H4 on the dephosphorylation of the pRb-Tat peptide, we analyzed the initial velocity versus pRb-Tat peptide substrate concentration plots. […] This was expected because the dephosphorylation site and the RVxF-containing sequence were fused into one hybrid substrate and 1H4 interferes with the binding of this substrate to PP1.
Figure 5 1H4 compound competes with RVxF motif. A. Superimposition of pRb-Tat peptide on the complex of PP1 with Spinophilin. PP1 surface is colored after the atom types. The spinophilin peptide is shown as magenta ribbon and the pRb-Tat peptide as orange ribbon. The Val25 and Phe27 residues of pRb-Tat and the Ile449 and Phe 451 residues of Spinophilin are shown as sticks. The 2-(N-morpholino)-ethanesulfonic acid bound in the active site of PP1 is shown in green spheres. The phosphorylated Ser6 residue of pRb-Tat peptide is shown as sticks. B. Phosphorylated Ser 6 residue binds to the active site of PP1. Comparative superimposition of pRb-Tat peptide over the crystal structure of MES bound in the active site of PP1. Catalytic resides are shown as sticks. MES is shown as green sticks, and the phosphorylated Ser6 residue of pRb-Tat peptide is shown as orange sticks. The pRb-Tat peptide is shown as orange ribbon. C. 1H4 inhibits kinetics of pRb-Tat peptide dephosphorylation by PP1α. Recombinant PP1α was assayed with pRb-Tat (WT or QACA mutant, 120 µM) in the absence or presence of 1H4 as indicated. The reactions were stopped at indicated time points and the phosphate release was quantified by malachite green assay. Initial velocity was calculated by linear regression in Prism. D. 1H4 inhibits kinetics of pRb-cdNIPP dephosphorylation by PP1α. Recombinant PP1α was assayed with pRb-cdNIPP1 in the absence or presence of 1H4 as indicated. Mutant pRb cdNIPP1 pA-RATA was used as negative control. The reactions were stopped at indicated time points and the phosphate release was quantified by malachite green assay. Initial velocity was calculated by linear regression in Prism. […] Initial rates of pRb-Tat peptide dephosphorylation by PP1α were assayed at the indicated concentrations of the substrate in the absence or presence of 300 µM 1H4 or non-HIV-1 inhibitory 1G3. The amount of the released phosphate was quantified with malachite green.
Malachite green dephosphorylation assays were carried out with the Ser/Thr phosphatase assay kit (Upstate, Lake Placid, NY) using recombinant PP1α (New England Biolabs, Ipswich, MA). […]

[4] = target: PP1α (Homo sapiens, UniProt P62136)
Sequence of PP1α (P62136 whole entry): as the sequence (P62139 whole entry) above

Row | Molecule | IC50 [1] | IC50 [2] | Initial velocity V0 of peptide dephosphorylation by PP1α [3] | further results
1 | Nc1c2c(nc3ccccc13)CCCC2 [9-amino-1,2,3,4-tetrahydroacridine, reference compound] | – | – | – | Activity as HIV-1 transcription inhibitor (in words) ([1]; data not shown, assay not specified): not active
2 | CCC(c1nnc(SCC(=O)Nc2ncc(-c3ccc(F)cc3)s2)n1Cc1ccccc1)N(C)C (stereo not shown) [T5251659] | 10 µM | 6 µM | – | –
3 | CCN(CC)S(=O)(=O)c1ccc2c(c1)nc(CCC(=O)N(C)c1ccc(C(F)(F)F)cc1)n2C [T5326526] | 15 µM | 10 µM | – | –
4 | CC(OC(=O)c1ccccc1SCC(=O)Nc1ccc2c(c1)OCO2)C(=O)NCCC1=CCCCC1 (stereo not shown) [T5369370] | 10 µM | 15 µM | – | –
5 | O=S(=O)(Nc1ccc(S(=O)(=O)N2CCC(Cc3ccccc3)CC2)cn1)c1ccccc1 [T5481237] | 15 µM | 20 µM | – | –
6 | O=C(CNC(=O)c1ccccc1SCC(=O)NC12CC3CC(CC(C3)C1)C2)Nc1ccc(Cl)cc1 [T5498680] | 5 µM | 5 µM | – | –
7 | CN(C1CCCCC1)S(=O)(=O)c1ccc(NC(=O)COc2ccccc2-c2ccccc2)cc1 [T5551920] | 15 µM | 15 µM | – | –
8 | HIPR(pS)PYKFPSSPLRKKCCFHCQACAITK (HIPR[pS]PYKFPSSPLRKKCCFHCQACAITK; cysteine pairing not given here) [pRb-Tat QACA] | – | – | 0.17 µM/min and 0.17 ± 0.02 µM/min | –
9 | HIPR(pS)PYKFPSSPLRKKCCFHCQVCFITK [pRb-Tat] | – | – | 0.31 µM/min and 0.31 ± 0.03 µM/min | –
10 | HIPR[pS]PYKFPSSPL [pRb, reference compound] | – | – | 0.014 µM/min | –
11 | HIPR[pS]PYKFPSSPLRAAAAASRATASED [pRb-NIPP1 pA-RATA] | – | – | 0.004 µM/min | Initial velocity V0 of peptide dephosphorylation by PP1α ([3]; listed as pRb-cdNIPP1 pA-RATA): 0.017 ± 0.004 µM/min
12 | HIPR[pS]PYKFPSSPLRKRKRKNSRVTFSED [pRb-NIPP1] | – | – | 0.56 µM/min | Initial velocity V0 of peptide dephosphorylation by PP1α ([3]; listed as pRb-cdNIPP1): 0.56 ± 0.03 µM/min
13 | HIPR[pS]PYKFPSSPLRKRKRKNSRVTFSED [pRb-NIPP1 peptide] | – | – | – | initial velocity V0 of dephosphorylation of the peptide by recombinant PP1α in the presence of the small molecule 1H4 [4]: 0.37 µM⋅min^−1; initial velocity V0 of dephosphorylation of the peptide by recombinant PP1α in vitro (malachite green) [4]: 0.56 µM⋅min^−1
